# Experimental data from ChEMBL document CHEMBL1134687, “Synthesis and structure-activity relationships of naphthamides as dopamine D3 receptor ligands” (J Med Chem, 2001).
# Tests used:
# D(2) dopamine receptor = D(2) dopamine receptor (Rattus norvegicus, UniProt P61169); test: Binding affinity for dopamine receptor D2 long expressed in Sf9 cells using [125I]IABN radioligand.
# D(3) dopamine receptor = D(3) dopamine receptor (Rattus norvegicus, UniProt P19020); test: biochemical
# Description: Binding affinity for dopamine receptor D3 expressed in Sf9 cells using [125I]IABN the radioligand.
# Sigma 2 receptor [1] = molecular target: Sigma 2 receptor; design: species or system Rattus norvegicus, Liver, Membrane
# Sigma 2 receptor [2] = test: Binding affinity for sigma-2 receptor measured on rat liver membranes using [3H]DTG as radioligand in the presence of (+)-pentazocine; design: species or system Membrane
# Sequence of D(2) dopamine receptor (P61169 whole entry): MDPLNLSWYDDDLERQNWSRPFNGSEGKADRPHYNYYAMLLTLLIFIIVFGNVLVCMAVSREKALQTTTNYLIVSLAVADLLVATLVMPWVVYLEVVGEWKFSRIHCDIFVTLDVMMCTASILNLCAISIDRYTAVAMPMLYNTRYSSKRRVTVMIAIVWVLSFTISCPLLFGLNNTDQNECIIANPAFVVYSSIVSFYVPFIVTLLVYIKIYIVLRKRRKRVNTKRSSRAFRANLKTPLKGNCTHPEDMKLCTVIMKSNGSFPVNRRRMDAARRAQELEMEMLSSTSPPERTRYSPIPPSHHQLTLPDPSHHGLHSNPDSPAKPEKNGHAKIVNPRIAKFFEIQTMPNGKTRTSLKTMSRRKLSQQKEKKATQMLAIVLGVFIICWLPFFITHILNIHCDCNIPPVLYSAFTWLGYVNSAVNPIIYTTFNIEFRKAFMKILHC
# Sequence of D(3) dopamine receptor (P19020 whole entry): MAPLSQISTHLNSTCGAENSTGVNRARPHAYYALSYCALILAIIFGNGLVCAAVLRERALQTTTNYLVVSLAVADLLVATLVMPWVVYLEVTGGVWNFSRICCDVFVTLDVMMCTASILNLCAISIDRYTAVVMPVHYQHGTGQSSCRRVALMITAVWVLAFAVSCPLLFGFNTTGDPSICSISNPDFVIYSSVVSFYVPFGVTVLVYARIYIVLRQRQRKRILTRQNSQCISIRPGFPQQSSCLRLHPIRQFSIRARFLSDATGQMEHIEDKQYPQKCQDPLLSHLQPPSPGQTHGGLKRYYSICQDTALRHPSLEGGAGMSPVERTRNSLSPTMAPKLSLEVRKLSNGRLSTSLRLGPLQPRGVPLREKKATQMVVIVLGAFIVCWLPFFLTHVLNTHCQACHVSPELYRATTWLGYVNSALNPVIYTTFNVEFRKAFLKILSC
SMILES,Ki (D(2) dopamine receptor) [nM],Ki (D(3) dopamine receptor) [nM],Ki (Sigma 2 receptor [1]) [nM],Ki (Sigma 2 receptor [2]) [nM]
COc1c(C(=O)N[C@@H]2CCN(C3C4CCCC3CCC4)C2)cc(Br)c2ccccc12 (stereo partly drawn),75,13.2,279,–
COc1c(C(=O)NC[C@H]2CCCN2C2[C@H]3C[C@@H]4C[C@@H](C[C@H]2C4)C3)cc(Br)c2ccccc12 (stereo partly drawn),–,2.6,317,–
COc1c(C(=O)N[C@H]2CCN(C3C4CCCC3CCC4)C2)cc(Br)c2ccccc12 (stereo partly drawn),132,12,137,–
COc1c(C(=O)NC[C@H]2CCCN2C2CCC2)cc(Br)c2ccccc12,277,–,–,–
COc1c(C(=O)NC2CCN(C3CCCCC3)CC2)cc(Br)c2ccccc12,94,430,2.1,–
COc1c(C(=O)NC2CC3CCCC(C2)N3Cc2ccccc2)cc(Br)c2ccccc12 (stereo not drawn),0.2,0.04,250,–
COc1c(C(=O)NC[C@@H]2CCCN2C2CCCCC2)cc(Br)c2ccccc12,442,334,147,–
COc1c(C(=O)NC[C@H]2CCCN2C2CCCCC2)cc(Br)c2ccccc12,58,3.2,25,–
COc1c(C(=O)NC[C@H]2CCCN2Cc2ccccc2)cc(Br)c2ccccc12,11.4,1.4,207,–
COc1c(C(=O)NC[C@@H]2CCCN2C2[C@H]3C[C@@H]4C[C@@H](C[C@H]2C4)C3)cc(Br)c2ccccc12 (stereo partly drawn),–,68,141,–
COc1c(C(=O)N[C@@H]2CCN(C3CCCCCC3)C2)cc(Br)c2ccccc12,19,2.9,10,–
COc1c(C(=O)NC[C@@H]2CCCN2Cc2ccccc2)cc(Br)c2ccccc12,151,14.6,222,–
COc1c(C(=O)NC2CCN(C3CCCC3)CC2)cc(Br)c2ccccc12,210,899,6.8,–
COc1c(C(=O)NC[C@@H]2CCCN2C2C3CCCC2CCC3)cc(Br)c2ccccc12 (stereo partly drawn),26,7.5,267,–
COc1c(C(=O)N[C@H]2CCN(C3CCCCCC3)C2)cc(Br)c2ccccc12,1.8,0.2,–,–
COc1cc(I)cc(C(=O)NC2CC3CCCC(C2)N3Cc2ccccc2)c1OC (stereo not drawn),0.05,0.04,419,–

# Continued, values first:
Ki (D(2) dopamine receptor) [nM],Ki (D(3) dopamine receptor) [nM],Ki (Sigma 2 receptor [1]) [nM],Ki (Sigma 2 receptor [2]) [nM],SMILES
11.8,–,–,–,COc1c(C(=O)NC[C@@H]2CCCN2C2CCC2)cc(Br)c2ccccc12
152,41,7.9,–,COc1c(C(=O)NC2CC3CCCC(C2)N3C2CCCCCC2)cc(Br)c2ccccc12 (stereo not drawn)
12,1.6,20.8,–,COc1c(C(=O)N[C@@H]2CCN(Cc3ccccc3)C2)cc(Br)c2ccccc12
–,50,–,–,COc1c(C(=O)NC[C@@H]2CCCN2C2CCCCCC2)cc(Br)c2ccccc12
157,–,35,–,COc1c(C(=O)NC[C@H]2CCCN2C2CCCC2)cc(Br)c2ccccc12
150,48,4.8,–,COc1c(C(=O)NC2CC3CCCC(C2)N3C2CCCCC2)cc(Br)c2ccccc12 (stereo not drawn)
96,92,55,–,COc1c(C(=O)NC2CCN(C3[C@H]4C[C@@H]5C[C@@H](C[C@H]3C5)C4)CC2)cc(Br)c2ccccc12 (stereo partly drawn)
9.7,1,42,–,COc1c(C(=O)N[C@H]2CCN(Cc3ccccc3)C2)cc(Br)c2ccccc12
–,13,21.4,–,COc1c(C(=O)N[C@@H]2CCN(C3[C@H]4C[C@@H]5C[C@@H](C[C@H]3C5)C4)C2)cc(Br)c2ccccc12 (stereo partly drawn)
–,1.1,–,35,COc1c(C(=O)NC2CCN(Cc3ccccc3)CC2)cc(Br)c2ccccc12
–,0.4,70,–,COc1c(C(=O)N[C@H]2CCN(C3[C@H]4C[C@@H]5C[C@@H](C[C@H]3C5)C4)C2)cc(Br)c2ccccc12 (stereo partly drawn)
–,2.4,–,–,COc1c(C(=O)NC[C@H]2CCCN2C2CCCCCC2)cc(Br)c2ccccc12
23,58,2.6,–,COc1c(C(=O)NC2CCN(C3CCCCCC3)CC2)cc(Br)c2ccccc12
771,1430,2.4,–,COc1c(C(=O)NC2CCN(C3C4CCCC3CCC4)CC2)cc(Br)c2ccccc12 (stereo not drawn)
19,2.5,27,–,COc1c(C(=O)N[C@H]2CCN(C3CCCC3)C2)cc(Br)c2ccccc12
74,5.7,9.8,–,COc1c(C(=O)N[C@@H]2CCN(C3CCCCC3)C2)cc(Br)c2ccccc12
283,75,15.3,–,COc1c(C(=O)N[C@@H]2CCN(C3CCCC3)C2)cc(Br)c2ccccc12
59,–,51,–,COc1c(C(=O)NC[C@@H]2CCCN2C2CCCC2)cc(Br)c2ccccc12
–,0.8,25,–,COc1c(C(=O)N[C@H]2CCN(C3CCCCC3)C2)cc(Br)c2ccccc12
